Publication PMC12541710, “Design, synthesis, and anticancer evaluation of novel pyrazole–thiophene hybrid derivatives as multitarget inhibitors of wild EGFR, mutant (T790M) EGFR, and VEGFR-2” (RSC Advances, 2025)
Read-outs that look alike come from different tables or passages of the source.

How the values were obtained:
MCF-7 [1] = assay: MTT cytotoxicity assay, MCF-7; settings: Homo sapiens, MCF7, 24 h, read-out: In vitro Cytotoxicity (IC50, μM) MCF-7
Description: (§1) Two human cancer cell lines, HepG2 (human hepatocellular carcinoma) and MCF-7 (human breast adenocarcinoma), were used to test the produced compounds' cytotoxic activities. […] HepG2 cells, a hepatocellular carcinoma model, are widely used for studying VEGF/VEGFR-2-mediated angiogenesis and tumor progression.[76,77] Thus, these models provided a relevant system for assessing the potential EGFR/VEGFR inhibitory effects of our synthesized compounds. Accordingly, provide complementary systems for assessing the multitarget inhibitory potential of the synthesized pyrazole–thiophene hybrids against EGFR- and VEGFR-2-mediated oncogenic pathways. […] The cytotoxic activity of the synthesized pyrazole–thiophene derivatives was initially evaluated against two standard human cancer cell lines: MCF-7 and HepG2, which are widely used in cytotoxicity screening using the 3-(4,5-dimethylthiazol-2-yl)-2,5-diphenyltetrazolium bromide (MTT) assay (SI data, S1).[81–84] […]
(§2) S1. Analysis of Cytotoxic Inhibitory Concentration 50 (IC 50) with respect to HepG2 and MCF-7 The cytotoxic activity of the synthesized compounds was evaluated against MCF-7 and HepG2 cell lines using the 3-(4,5-dimethylthiazol-2-yl)-2,5-diphenyltetrazolium bromide (MTT) assay 2-5.
(§3) 100 µg/mL streptomycin, then seeded in 96 -well plates (1 × 10⁴ cells/well) and incubated at 37 °C with 5% CO₂ for 48 h. Test compounds, prepared by serial dilutio n, were added for 24 h, after which 20 µL of MTT solution (5 mg/mL) was introduced and incubated for 4 h. Formazan crystals were dissolved […]
(§4) Cell viability was ca lculated relative to untreated controls, and IC₅₀ values were obtained from dose – response curves by nonlinear regression. […]

HepG2 [2] = assay: MTT cytotoxicity assay, HepG2; settings: Homo sapiens, HepG2, 24 h, read-out: In vitro Cytotoxicity (IC50, μM) HepG2
Description: as §1, §2, §3, §4

wild-type EGFR = biological target: T1, wild-type EGFR (Homo sapiens, UniProt P00533); assay: EGFR enzyme inhibition assay (wild type), Kinase-Glo kit; assay type: biochemical
T1 construct: purchased #40321
Protocol: (§5) Supporting Information (SI)
(§6) Formazan crystals were dissolved
(§7) response curves by nonlinear regression.
(§8) performed in 96 -well plates containing purified recombinant EGFR. Each we ll received 25 µL of
(§9) control). […] The reaction was initiated
(§10) After incubation, 50 µL of
(§11) min. Luminescence was then recorded using a microplate ELISA reader. Erlotinib served as t he
(§12) incubated for 5 min at room temperature.

EGFR mutant (T790M) = biological target: T2, EGFR mutant (T790M) (Homo sapiens, UniProt P00533, T790M); assay: EGFR enzyme inhibition assay (mutant T790M), Kinase-Glo kit; assay type: biochemical
T2 construct: purchased #40323
Protocol: as §5, §6, §7, §8, §9, §10, §11, §12

VEGFR-2 = biological target: T3, VEGFR-2 (Homo sapiens, UniProt P35968); assay: VEGFR-2 enzyme inhibition assay (HTScan Tyrosine Kinase Assay); assay type: biochemical
T3 construct: purchased Cell Signaling Technology #7788

MCF-7 [3] = settings: reference drug value; read-out: In vitro Cytotoxicity (IC50, μM) MCF-7; cited from earlier work
HepG2 [4] = settings: reference drug value; read-out: In vitro Cytotoxicity (IC50, μM) HepG2; cited from earlier work
MCF-7 cells [5] = assay: Cell cycle analysis by PI flow cytometry; assay type: cell-based, human; settings: MCF-7, 10 µM, 48 h
Protocol: S3. Assessment of the Impact of Compound 14 on Cell Cycle Progression and Apoptosis in MCF - […]
MCF-7 breast cancer cells were seeded under standard culture conditions and treated with 10 µM of compound 14 for 48 h. After treatment, cells were harvested by trypsinization, washed with PBS, and fixed in ice-cold 66% ethanol at 4 °C for at least 2 h. Prior to analysis, cells were washed again with PBS and stained using the Propidium Iodide Flow Cytometry Kit ( ab139418, Abcam, UK) according to the manufacturer’s instructions. Staining was carried out with PI and RNase at 37 °C in the dark for 30 min. Cell cycle distribution (G0/G1, S, and G2/M phases) was then determined by measuring PI fluorescence intensity in the FL2 channel 8. […]

MCF-7 cells [6] = assay: Annexin V-FITC/PI apoptosis and necrosis assay; assay type: cell-based, human; settings: MCF-7, 10 µM, 48 h
Protocol: Flow cytometric assay and the pro-apoptotic activity of compound 14 were assessed using the Annexin V-FITC Apoptosis Detection Kit (BioVision, USA; Cat. No. K101-25). The assay of compound 14 was performed in accordance with the reported procedure,[87,88] (SI data, S3). […]
The pro-apoptotic activity of compound 14 was assessed using the Annexin V -FITC Apoptosis Detection Kit (BioVision, USA; Cat. No. K101 -25) according to the manufacturer’s instructions.
MCF-7 cells (1–5 × 10⁵) were seeded and treated with 10 µM of 14 for 48 h. After treatment, both floating and adherent cells were collected by gentle trypsinization, washed with serum -containing medium, and resuspended in 500 µL of 1× Binding Buffer. Each sample was stained with 5 µL Annexin V-FITC and 5 µL propidium iodide (50 µg/mL) for 5 min at room temperature in the dark, then analyzed by flow cytometry. […]

[7] = tested on: human pancreatic tumor (AsPC-1) and human glioblastoma (U251); parameters: method as in PMID 26492233; settings: read-out: IC50 against AsPC-1 and U251; cited from earlier work

T2 sequence (P00533 25-1210 T790M): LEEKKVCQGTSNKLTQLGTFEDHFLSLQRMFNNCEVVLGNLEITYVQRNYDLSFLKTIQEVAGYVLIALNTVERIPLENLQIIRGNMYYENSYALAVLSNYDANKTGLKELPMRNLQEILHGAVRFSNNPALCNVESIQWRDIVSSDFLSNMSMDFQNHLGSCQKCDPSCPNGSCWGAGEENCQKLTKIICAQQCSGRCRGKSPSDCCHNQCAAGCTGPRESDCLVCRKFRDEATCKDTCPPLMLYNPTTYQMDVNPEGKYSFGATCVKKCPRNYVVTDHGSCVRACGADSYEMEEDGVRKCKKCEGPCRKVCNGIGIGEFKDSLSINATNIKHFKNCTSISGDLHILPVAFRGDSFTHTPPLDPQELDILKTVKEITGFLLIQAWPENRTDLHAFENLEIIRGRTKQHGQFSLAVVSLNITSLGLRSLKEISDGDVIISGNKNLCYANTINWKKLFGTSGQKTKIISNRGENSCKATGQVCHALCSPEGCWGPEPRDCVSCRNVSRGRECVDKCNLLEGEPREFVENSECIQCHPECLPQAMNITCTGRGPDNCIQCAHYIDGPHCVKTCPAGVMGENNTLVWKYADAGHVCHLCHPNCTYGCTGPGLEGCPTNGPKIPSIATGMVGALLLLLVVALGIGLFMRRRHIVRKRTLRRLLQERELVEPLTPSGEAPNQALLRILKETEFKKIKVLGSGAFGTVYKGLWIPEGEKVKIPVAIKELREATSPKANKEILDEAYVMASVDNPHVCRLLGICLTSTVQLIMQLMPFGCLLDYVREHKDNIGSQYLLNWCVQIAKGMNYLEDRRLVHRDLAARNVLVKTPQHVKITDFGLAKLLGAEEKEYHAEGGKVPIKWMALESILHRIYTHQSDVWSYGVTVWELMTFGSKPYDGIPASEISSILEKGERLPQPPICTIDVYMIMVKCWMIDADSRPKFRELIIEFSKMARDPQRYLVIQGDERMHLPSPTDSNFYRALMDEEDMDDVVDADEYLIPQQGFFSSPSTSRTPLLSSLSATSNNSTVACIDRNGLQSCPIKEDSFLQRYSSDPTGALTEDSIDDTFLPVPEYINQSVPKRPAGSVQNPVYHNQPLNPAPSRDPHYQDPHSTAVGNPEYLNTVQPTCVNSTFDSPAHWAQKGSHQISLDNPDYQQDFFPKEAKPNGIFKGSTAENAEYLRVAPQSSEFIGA
T1 sequence (P00533 25-1210): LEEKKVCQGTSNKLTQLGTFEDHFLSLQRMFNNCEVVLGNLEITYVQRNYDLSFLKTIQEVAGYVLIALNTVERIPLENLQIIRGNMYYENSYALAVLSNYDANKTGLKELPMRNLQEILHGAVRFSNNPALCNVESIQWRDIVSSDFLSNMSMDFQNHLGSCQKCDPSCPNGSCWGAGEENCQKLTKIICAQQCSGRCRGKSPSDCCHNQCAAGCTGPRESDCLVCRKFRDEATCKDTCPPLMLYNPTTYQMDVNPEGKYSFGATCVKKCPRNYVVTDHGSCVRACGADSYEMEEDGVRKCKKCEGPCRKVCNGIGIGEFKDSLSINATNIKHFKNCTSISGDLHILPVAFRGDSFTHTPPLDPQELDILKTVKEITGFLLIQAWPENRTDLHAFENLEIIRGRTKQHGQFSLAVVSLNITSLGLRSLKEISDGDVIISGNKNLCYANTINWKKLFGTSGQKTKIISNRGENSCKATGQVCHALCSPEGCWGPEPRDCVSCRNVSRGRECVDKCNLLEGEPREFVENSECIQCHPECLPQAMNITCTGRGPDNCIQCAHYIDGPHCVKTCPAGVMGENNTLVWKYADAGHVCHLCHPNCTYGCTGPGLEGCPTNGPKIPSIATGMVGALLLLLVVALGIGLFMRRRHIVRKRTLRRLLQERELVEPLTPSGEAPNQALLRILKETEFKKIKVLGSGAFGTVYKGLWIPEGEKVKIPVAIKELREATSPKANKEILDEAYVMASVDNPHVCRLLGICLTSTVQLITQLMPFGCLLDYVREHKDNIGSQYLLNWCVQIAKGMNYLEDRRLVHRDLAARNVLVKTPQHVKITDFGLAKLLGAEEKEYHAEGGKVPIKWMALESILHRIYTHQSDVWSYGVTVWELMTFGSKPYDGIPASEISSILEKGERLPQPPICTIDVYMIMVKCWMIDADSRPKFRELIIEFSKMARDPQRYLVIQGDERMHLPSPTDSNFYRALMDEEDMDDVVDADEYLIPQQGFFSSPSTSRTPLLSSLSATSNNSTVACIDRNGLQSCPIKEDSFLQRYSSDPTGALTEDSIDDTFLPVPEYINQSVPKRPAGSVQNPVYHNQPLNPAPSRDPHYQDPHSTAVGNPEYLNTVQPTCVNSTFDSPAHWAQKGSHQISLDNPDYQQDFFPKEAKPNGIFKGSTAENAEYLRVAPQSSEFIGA
T3 sequence (P35968 789-1356 limits assumed): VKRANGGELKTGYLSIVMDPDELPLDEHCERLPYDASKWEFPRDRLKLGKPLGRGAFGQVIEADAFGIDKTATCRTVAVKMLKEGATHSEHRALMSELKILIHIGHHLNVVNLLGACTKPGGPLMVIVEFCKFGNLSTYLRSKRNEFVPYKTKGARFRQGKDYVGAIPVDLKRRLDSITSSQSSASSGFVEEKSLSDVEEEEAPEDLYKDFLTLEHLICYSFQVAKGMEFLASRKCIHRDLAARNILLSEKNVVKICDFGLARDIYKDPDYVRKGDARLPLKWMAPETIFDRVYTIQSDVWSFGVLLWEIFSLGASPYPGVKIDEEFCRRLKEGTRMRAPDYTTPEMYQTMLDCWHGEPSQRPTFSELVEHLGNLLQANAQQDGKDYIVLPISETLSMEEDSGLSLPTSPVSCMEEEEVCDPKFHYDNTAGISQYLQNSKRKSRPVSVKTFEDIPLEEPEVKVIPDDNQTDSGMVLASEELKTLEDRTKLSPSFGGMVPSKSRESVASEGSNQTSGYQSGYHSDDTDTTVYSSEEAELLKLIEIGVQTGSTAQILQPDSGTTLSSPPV

Row | Structure (SMILES) | IC50 (MCF-7 [1]) | IC50 (HepG2 [2]) | also measured
1 | O=[N+]([O-])c1ccc(C2=NNC(c3cccs3)C2)cc1 (stereo not drawn) [Compound 2, 3-(4-nitrophenyl)-5-(thiophen-2-yl)-4,5-dihydro-1H-pyrazole] | 6.57 µM | 8.86 µM | IC50 (wild-type EGFR): 59.5 µM; IC50 (EGFR mutant (T790M)): 65.1 µM; IC50 (VEGFR-2): 889 µM
2 | N#Cc1c(-c2cccs2)cc(-c2ccc([N+](=O)[O-])cc2)[nH]c1=O [Compound 6, 6-(4-nitrophenyl)-2-oxo-4-(thiophen-2-yl)-1,2-dihydropyridine-3-carbonitrile] | 23.3 µM | 28.9 µM | 
3 | C#Cc1cccc(Nc2ncnc3cc(OCCOC)c(OCCOC)cc23)c1 [Erlotinib, erlotinib] |  |  | IC50 (MCF-7 [3]): 8.2 µM; IC50 (HepG2 [4]): 7.73 µM
4 | O=C(O)n1nc(-c2ccc([N+](=O)[O-])cc2)cc1-c1cccs1 [Compound 13, 3-(4-nitrophenyl)-5-(thiophen-2-yl)-1H-pyrazole-1-carboxylic acid] | 37.1 µM | 41.4 µM | 
5 | CC(=O)C1C(c2ccc([N+](=O)[O-])cc2)=NN(C=O)C1c1cccs1 (stereo not drawn) [Compound 14, 4-Acetyl-3-(4-nitrophenyl)-5-(thiophen-2-yl)-4,5-dihydro-1H-pyrazole-1-carbaldehyde] | 12.9 µM | 19.6 µM | IC50 (wild-type EGFR): 47.6 µM; IC50 (EGFR mutant (T790M)): 48.3 µM; IC50 (VEGFR-2): 327 µM; Cell cycle analysis Comment (MCF-7 cells [5]): Cell cycle arrest at G1phase; Cell cycle analysis %G2/M (MCF-7 cells [5]; control 16.74%): 6.62%; Cell cycle analysis %S (MCF-7 cells [5]; control 27.95%): 19.22%; Cell cycle analysis %G0-G1 (MCF-7 cells [5]; control 55.31%): 74.16%; Apoptosis Late (MCF-7 cells [6]; control 0.14%): 7.1%; Apoptosis Early (MCF-7 cells [6]; control 0.69%): 15.02%; Necrosis (MCF-7 cells [6]; control 2.36%): 4.2%
6 | O=[N+]([O-])c1ccc(C2=NN(CN3N=C(c4ccc([N+](=O)[O-])cc4)CC3c3cccs3)C(c3cccs3)C2)cc1 (stereo not drawn) [Compound 11, bis(3-(4-nitrophenyl)-5-(thiophen-2-yl)-4,5-dihydro-1H-pyrazol-1-yl)methane] | 87.4 µM | 74.2 µM | 
7 | O=C(O)CCC(=O)N1N=C(c2ccc([N+](=O)[O-])cc2)CC1c1cccs1 (stereo not drawn) [Compound 9, 4-(3-(4-nitrophenyl)-5-(thiophen-2-yl)-4,5-dihydro-1H-pyrazol-1-yl)-4-oxobutanoic acid] | 17.8 µM | 22.6 µM | 
8 | COc1cccc2c1C(=O)c1c(O)c3c(c(O)c1C2=O)C[C@@](O)(C(=O)CO)C[C@@H]3O[C@H]1C[C@H](N)[C@H](O)[C@H](C)O1 [Doxorubicin, doxorubicin, reference compound] |  | 4.5 µM | 
9 | O=[N+]([O-])c1ccc(C2=Nc3ccccc3NC(c3cccs3)C2)cc1 (stereo not drawn) [Compound 5, 4-(4-nitrophenyl)-2-(thiophen-2-yl)-2,3-dihydro-1H-benzo[b][1,4] diazepine] | 75.5 µM | 62.6 µM | 
10 | O=C(O)c1ccccc1C(=O)N1N=C(c2ccc([N+](=O)[O-])cc2)CC1c1cccs1 (stereo not drawn) [Compound 8, 2-(3-(4-nitrophenyl)-5-(thiophen-2-yl)-4,5-dihydro-1H-pyrazole-1-carbonyl)benzoic acid] | 8.08 µM | 13.5 µM | IC50 (wild-type EGFR): 66.6 µM; IC50 (EGFR mutant (T790M)): 121 µM; IC50 (VEGFR-2): 85.1 µM
11 | CC(=O)N1N=C(c2ccc([N+](=O)[O-])cc2)CC1c1cccs1 (stereo not drawn) [Compound 3, 1-(3-(4-nitrophenyl)-5-(thiophen-2-yl)-4,5-dihydro-1H-pyrazol-1-yl) ethan-1-one] | 43.6 µM | 53.2 µM | 
12 | O=CN1N=C(c2ccc([N+](=O)[O-])cc2)CC1c1cccs1 (stereo not drawn) [Compound 4, 3-(4-nitrophenyl)-5-(thiophen-2-yl)-4,5-dihydro-1H-pyrazole-1-carbaldehyde] | 92.1 µM | 84 µM | 
13 | O=C(O)C=CC(=O)N1N=C(c2ccc([N+](=O)[O-])cc2)CC1c1cccs1 (stereo not drawn) [Compound 10, 4-(3-(4-nitrophenyl)-5-(thiophen-2-yl)-4,5-dihydro-1H-pyrazol-1-yl)-4-oxobut-2-enoic acid] | 32.6 µM | 36.4 µM | 
14 | COC(=O)/C=C(\C(=O)OC)N1N=C(c2ccc([N+](=O)[O-])cc2)CC1c1cccs1 (stereo not drawn) [Compound 12, dimethyl 2-(3-(4-nitrophenyl)-5-(thiophen-2-yl)-4,5-dihydro-1H-pyrazol-1-yl)maleate] | 51.7 µM | 59.3 µM | 
15 | O=C(C=Cc1cccs1)c1ccc([N+](=O)[O-])cc1 [Compound 1, 1-(4-nitrophenyl)-3-(thiophen-2-yl)prop-2-en-1-one] | > 100 µM | 90.5 µM | 
16 | Cc1ccc(-c2nnc(SCC(=O)N3N=C(c4cccs4)CC3c3ccc(Cl)cc3)o2)cc1 (stereo not drawn) [compound II] |  |  | IC50 [7]: 12 to 17 µM
17 | O=C(CCl)N1N=C(c2ccc([N+](=O)[O-])cc2)CC1c1cccs1 (stereo not drawn) [Compound 7, 2-chloro-1-(3-(4-nitrophenyl)-5-(thiophen-2-yl)-4,5-dihydro-1H-pyrazol-1-yl)ethan-1-one] | 75 µM | 78.1 µM | 
